The source made the active and inactive calls.
Columns and labels:
[1] = system: A-375; assay: A375 melanoma cell viability reduction, dose response, counter-screen for MITF modulator project, cherry-pick samples, set 2 (AID 540335); format: functional, cell-based; settings: Homo sapiens
[2] = system: A-375; assay: MITF: Counter assay: A375 proliferation Measured in Cell-Based System Using Plate Reader - 2084-03_Inhibitor_Dose_DryPowder_Activity. [Related pubchem assays (depositor defined):AID488944]; format: functional; settings: Homo sapiens
[3] = molecular target: Protein Wnt-3a (Mus musculus, UniProt P27467); assay: Wnt3a-driven reporter signaling inhibition, dose response, selectivity assay for Gli-SUFU antagonist project, Wnt-LIGHT cells, luminescence (AID 651570); format: functional; settings: read-out: IC50_Mean;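 further: Wnt-LIGHT reporter cells stimulated with conditioned medium from Wnt3a-producing cells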
Sequence of Protein Wnt-3a (P27467 whole entry): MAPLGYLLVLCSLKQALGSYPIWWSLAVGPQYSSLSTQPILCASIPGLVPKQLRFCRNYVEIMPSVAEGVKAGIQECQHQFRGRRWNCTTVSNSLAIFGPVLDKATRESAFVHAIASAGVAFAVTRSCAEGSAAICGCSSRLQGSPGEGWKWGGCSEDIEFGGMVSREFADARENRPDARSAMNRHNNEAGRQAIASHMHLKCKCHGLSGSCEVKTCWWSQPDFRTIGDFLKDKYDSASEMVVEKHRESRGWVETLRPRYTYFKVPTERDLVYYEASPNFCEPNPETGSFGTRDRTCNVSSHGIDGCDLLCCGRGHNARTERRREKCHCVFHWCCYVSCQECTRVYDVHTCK

[4] = control 3'UTR Renilla luciferase suppression, dose response, counter-screen for Shn3 inhibitor project, cell-based, Clone20-Shn3RL, cherry-picked (AID 624133); format: functional
[5] = Shn3 3'UTR reporter inhibitors, dose response, cell-based, Clone20 osteoblasts, firefly luciferase, cherry-picked (AID 624132); format: functional;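 further: firefly luciferase luminescence from reporter carrying the Shn3 3'UTR in osteoblasts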
[6] = HepG2 cell cytotoxicity, dose response, cytotoxicity control for Shn3 inhibitor project, CellTiter-Glo, cherry-picked (AID 624134); format: functional, cell-based
[7] = molecular target: Melanocortin receptor 4 (Homo sapiens, UniProt P32245); format: functional, cell-based;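 further: Cell-based assay with luminescence read-out, confirmatory dose-response testing for agonist activity of biased ligands at MC4R; human U2OS cells with tagged receptor and beta-arrestin; potency of agonists that increase receptor coupling to beta-arrestin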
Sequence of Melanocortin receptor 4 (P32245 whole entry, the tested form may be a part): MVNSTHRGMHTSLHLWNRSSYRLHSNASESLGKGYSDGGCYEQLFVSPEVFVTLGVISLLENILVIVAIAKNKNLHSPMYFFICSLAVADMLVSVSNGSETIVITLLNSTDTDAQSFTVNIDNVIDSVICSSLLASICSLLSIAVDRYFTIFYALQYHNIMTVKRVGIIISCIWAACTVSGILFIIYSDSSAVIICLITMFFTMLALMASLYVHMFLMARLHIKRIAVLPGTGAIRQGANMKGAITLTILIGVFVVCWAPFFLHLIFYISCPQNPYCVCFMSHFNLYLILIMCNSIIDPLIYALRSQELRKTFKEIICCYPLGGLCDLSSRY

[8] = molecular target: T1, Sentrin-specific protease 1 (Homo sapiens, UniProt Q9P0U3); assay: Dose response confirmation of small molecule inhibitors of the catalytic domain of the SUMO protease, SENP1 in a FRET assay.; format: functional; settings: read-out: IC50_Mean
T1 sequence (Q9P0U3 whole entry, the tested form may be a part): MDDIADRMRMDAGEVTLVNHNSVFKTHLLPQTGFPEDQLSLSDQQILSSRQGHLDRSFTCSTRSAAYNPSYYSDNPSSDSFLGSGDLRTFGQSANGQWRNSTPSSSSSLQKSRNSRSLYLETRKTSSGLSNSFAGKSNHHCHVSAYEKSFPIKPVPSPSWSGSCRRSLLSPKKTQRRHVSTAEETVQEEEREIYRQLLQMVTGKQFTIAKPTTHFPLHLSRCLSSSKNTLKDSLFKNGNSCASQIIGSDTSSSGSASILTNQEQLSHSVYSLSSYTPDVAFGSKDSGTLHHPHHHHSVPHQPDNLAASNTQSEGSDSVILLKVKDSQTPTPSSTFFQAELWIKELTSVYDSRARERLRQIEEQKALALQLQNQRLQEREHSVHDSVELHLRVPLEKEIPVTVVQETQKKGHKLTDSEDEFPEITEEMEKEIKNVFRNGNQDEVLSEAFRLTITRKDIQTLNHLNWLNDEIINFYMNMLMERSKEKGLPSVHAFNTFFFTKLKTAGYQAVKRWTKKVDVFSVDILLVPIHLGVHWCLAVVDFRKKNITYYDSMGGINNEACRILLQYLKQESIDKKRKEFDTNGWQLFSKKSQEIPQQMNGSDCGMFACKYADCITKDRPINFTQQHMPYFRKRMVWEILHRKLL

[9] = molecular target: T1, Sentrin-specific protease 1; assay: potency of human SENP1 inhibitors, dose response, biochemical, kinetic FRET (AID 651697); format: functional; settings: read-out: IC50_Mean
[10] = molecular target: T2, Microphthalmia-associated transcription factor (Homo sapiens, UniProt O75030); assay: TRPM1 promoter luciferase signal decrease, dose response, MITF inhibitor project, cell-based, SK-MEL-5, cherry-picked, set 3 (AID 493073); format: functional
T2 sequence (O75030 whole entry): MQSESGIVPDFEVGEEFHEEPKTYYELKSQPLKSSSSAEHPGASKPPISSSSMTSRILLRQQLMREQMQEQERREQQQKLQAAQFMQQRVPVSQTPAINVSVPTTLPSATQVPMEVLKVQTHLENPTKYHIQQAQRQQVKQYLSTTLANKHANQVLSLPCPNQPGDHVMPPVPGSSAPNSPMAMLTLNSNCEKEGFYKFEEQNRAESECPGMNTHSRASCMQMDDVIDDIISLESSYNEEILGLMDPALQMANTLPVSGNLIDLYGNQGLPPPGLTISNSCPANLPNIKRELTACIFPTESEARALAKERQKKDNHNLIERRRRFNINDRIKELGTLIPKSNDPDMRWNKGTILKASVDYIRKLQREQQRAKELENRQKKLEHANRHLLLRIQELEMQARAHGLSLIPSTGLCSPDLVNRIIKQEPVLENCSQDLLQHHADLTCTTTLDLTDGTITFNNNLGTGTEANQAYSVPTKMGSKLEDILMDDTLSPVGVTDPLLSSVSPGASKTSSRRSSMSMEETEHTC

[11] = Luminescence Cell-Based Dose Retest to Confirm Inhibitors of Cancer Stem Cells. [Related pubchem assays (depositor defined):AID2717, AID2721]; format: functional; settings: Homo sapiens
[12] = molecular target: ADP-ribosylation factor GTPase-activating protein 1 (Rattus norvegicus, UniProt Q62848); assay: Fluorescence polarization-based biochemical high throughput dose response screening assay to identify inhibitors of ADP-ribosylation factor GTPase activating protein 1 (ARFGAP1).; format: functional
Sequence of ADP-ribosylation factor GTPase-activating protein 1 (Q62848 whole entry): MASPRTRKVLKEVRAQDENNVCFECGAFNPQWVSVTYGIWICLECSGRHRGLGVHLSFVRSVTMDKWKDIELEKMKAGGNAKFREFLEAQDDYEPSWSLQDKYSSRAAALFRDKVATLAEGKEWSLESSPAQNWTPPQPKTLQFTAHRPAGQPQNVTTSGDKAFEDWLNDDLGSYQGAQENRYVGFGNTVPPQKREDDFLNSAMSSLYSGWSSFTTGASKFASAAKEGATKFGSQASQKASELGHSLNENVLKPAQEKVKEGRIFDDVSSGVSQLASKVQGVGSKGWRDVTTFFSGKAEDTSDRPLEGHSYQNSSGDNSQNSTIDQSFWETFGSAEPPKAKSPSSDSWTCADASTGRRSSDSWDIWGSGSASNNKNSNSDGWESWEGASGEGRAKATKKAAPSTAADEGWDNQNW

[13] = molecular target: DNA repair and recombination protein RAD54-like (Homo sapiens, UniProt Q92698); assay: inhibitors of human RAD54 branch migration, confirmation, biochemical, fluorescence, cherry-picked samples, dose series (AID 651657); format: functional
Sequence of DNA repair and recombination protein RAD54-like (Q92698 whole entry): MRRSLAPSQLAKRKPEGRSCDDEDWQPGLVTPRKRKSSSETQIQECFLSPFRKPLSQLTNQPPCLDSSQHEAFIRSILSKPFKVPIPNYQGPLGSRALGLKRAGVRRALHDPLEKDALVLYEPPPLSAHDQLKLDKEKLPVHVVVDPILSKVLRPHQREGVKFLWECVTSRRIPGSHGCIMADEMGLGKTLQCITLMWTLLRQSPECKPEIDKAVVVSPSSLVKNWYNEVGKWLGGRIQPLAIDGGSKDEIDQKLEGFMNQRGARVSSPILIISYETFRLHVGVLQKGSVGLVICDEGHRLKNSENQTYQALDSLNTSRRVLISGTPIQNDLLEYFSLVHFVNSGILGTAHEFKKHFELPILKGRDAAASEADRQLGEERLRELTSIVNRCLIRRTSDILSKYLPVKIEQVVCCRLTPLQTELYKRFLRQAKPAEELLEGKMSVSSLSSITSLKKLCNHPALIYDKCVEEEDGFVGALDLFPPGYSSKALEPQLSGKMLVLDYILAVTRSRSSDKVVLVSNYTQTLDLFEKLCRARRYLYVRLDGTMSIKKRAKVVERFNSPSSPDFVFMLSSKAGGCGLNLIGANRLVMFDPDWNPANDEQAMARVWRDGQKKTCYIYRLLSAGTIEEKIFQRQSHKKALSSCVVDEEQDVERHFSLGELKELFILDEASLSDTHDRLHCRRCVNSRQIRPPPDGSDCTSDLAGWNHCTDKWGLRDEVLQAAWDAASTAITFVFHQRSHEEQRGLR

[14] = molecular target: T3, Mitochondrial peptide methionine sulfoxide reductase (Bos taurus, UniProt P54149); format: functional;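 further: absorbance read-out, biochemical high-throughput dose-response screen for MsrA inhibitors, confirmatory; recombinant bovine MsrA coupled to E. coli TrxB with NADPH and selenocystamine; potency is for inhibitors of MsrA activity on DMSO substrate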
T3 sequence (P54149 whole entry): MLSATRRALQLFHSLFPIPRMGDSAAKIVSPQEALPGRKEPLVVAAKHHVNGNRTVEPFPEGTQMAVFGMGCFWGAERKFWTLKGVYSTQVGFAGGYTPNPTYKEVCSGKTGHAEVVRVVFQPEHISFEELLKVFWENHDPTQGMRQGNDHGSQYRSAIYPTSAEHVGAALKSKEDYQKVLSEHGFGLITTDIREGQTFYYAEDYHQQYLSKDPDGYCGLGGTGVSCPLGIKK

[15] = system: Jurkat; assay: SAR Analysis of small molecule inhibitors of […] specific antigen receptor-induced NF-kB activation in a Jurkat cell line using a luminescence assay - Set 3. [Related pubchem assays (depositor defined):AID435022, AID435025, AID465]; format: functional, cell-based; settings: Homo sapiens
[16] = system: HEK293; assay: cytotoxicity in HEK293T NF-kB-Luc cells, SAR follow-up, cytotoxicity control for NF-kB activator project, cell-based, resazurin fluorescence (AID 493251); format: functional; settings: Homo sapiens
[17] = system: HEK293; assay: SAR Analysis of small molecule inhibitors of B-cell specific antigen receptor-induced NF-kB activation in a HEK-293T cell line using a luminescence assay - Set 2. [Related pubchem assays (depositor defined):AID435022, AID435025, AID489021]; format: functional, cell-based; settings: Homo sapiens
[18] = cytotoxicity in NIH3T3 fibroblasts, dose response, cytotoxicity control for HSP40 inhibitor project, cell-based, CellTiter-Glo luminescence, cherry-pick, set 2 (AID 624265); format: functional
[19] = molecular target: Adenosylmethionine-8-amino-7-oxononanoate aminotransferase (Mycobacterium tuberculosis, UniProt P9WQ81); assay: Mycobacterium tuberculosis BioA enzyme inhibitor Measured in Biochemical System Using Plate Reader - 2163-02_Inhibitor_Dose_CherryPick_Activity.; format: functional, Mycobacterium tuberculosis UT205
Sequence of Adenosylmethionine-8-amino-7-oxononanoate aminotransferase (P9WQ81 whole entry): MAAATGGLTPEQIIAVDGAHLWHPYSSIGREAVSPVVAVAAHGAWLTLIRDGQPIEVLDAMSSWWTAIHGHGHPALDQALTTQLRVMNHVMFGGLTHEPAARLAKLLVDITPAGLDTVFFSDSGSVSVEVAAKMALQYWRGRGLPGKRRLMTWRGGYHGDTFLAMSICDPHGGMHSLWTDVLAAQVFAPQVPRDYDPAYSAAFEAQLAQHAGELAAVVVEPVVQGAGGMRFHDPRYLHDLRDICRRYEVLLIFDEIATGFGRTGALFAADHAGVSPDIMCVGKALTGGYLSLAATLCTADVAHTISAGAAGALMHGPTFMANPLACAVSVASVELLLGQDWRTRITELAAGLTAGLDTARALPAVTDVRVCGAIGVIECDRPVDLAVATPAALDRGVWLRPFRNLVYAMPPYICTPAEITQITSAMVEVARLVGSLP

CN(C)c1ccc(/C=N/N2CCN(c3ccccn3)CC2)cc1
AC50 [1]: > 35 µM (active)
AC50 [2]: > 35 µM (active)

CN(Cc1ccc(OC(F)F)cc1)C(=O)c1cccc(S(=O)(=O)N2CCN(Cc3ccccc3)CC2)c1
IC50 [3]: 6.19 µM (active)
AC50 [4]: 2.94 µM (active)
AC50 [5]: 2.37 µM (active)
AC50 [6]: 57.2 µM (active)

COc1ccc(-c2ccc3c(c2)S(=O)(=O)c2cccc(C(=O)NCc4cc(C)oc4C(F)(F)F)c2C3=O)cc1OC
EC50 [7]: > 89.2 µM (inactive)
IC50 [8]: 13.3 µM (active)
IC50 [9]: 15.8 µM (active)

O=[N+]([O-])c1ccc(S(=O)(=O)CC(CN2CCCCC2)N2CCCCC2)cc1 (stereo unspecified)
AC50 [2]: 19.9 µM (active)
AC50 [10]: 4.88 µM (active)
AC50 [11]: 2.17 µM (active)

CC1CC(C)CN(C(=O)COC(=O)c2cn(C)c3ccccc23)C1 (stereo unspecified)
IC50 [12]: 28.4 µM (inactive)

O=C(COc1ccc2c(c1)oc(=O)c1ccccc12)NCCCN1CCOCC1
AC50 [13]: 29.9 µM (active)

C/C(=N\Nc1ccc(S(N)(=O)=O)cc1[N+](=O)[O-])c1ccc2c(c1)OCO2
IC50 [14]: 155 µM (inactive)

CC(C)(C)c1ccc(-c2noc(CCC(=O)N3CCCCC3)n2)cc1
IC50 [15]: 11.6 µM (active)
IC50 [16]: 39.7 µM (inactive)
IC50 [17]: 17.4 µM (active)

COc1ccc(-c2oc3ccccc3c2C#Cc2cncn2C)cc1
AC50 [11]: 2.05 µM (active)
AbsAC35_uM [18]: 54.48 µM

COc1cccc(NC(=O)N2C[C@H](O)COC[C@@H]3O[C@@H](CC(=O)N(C)C)CC[C@H]32)c1
AC50 [19]: 0.596 µM (active)

— ChEMBL document CHEMBL1201862, “PubChem BioAssay data set” (2004)
